{
  "source": "patent US20170333391A1",
  "about": "“METHOD FOR DELAYING THE ONSET OF PULMONARY FIBROSIS OR TREATING PULMONARY FIBROSIS” (EVERFRONT BIOTECH INC., priority 2016, published 2017)",
  "key": {"[1]": {"tested_on": "TGF-β protein", "experiment": "TGF-β protein in mouse pulmonary tissue, western blotting", "format": "in vivo, mice", "details": "compared to oil group", "procedure": "24 C57B/L6 mice (age: four weeks) were separated into four groups (6 mice in each group). […]\nThe samples of mice pulmonary tissue provided by Example 7 and preserved at −20° C. were removed from storage, and then ground in liquid nitrogen. […] The expressions of TGF-β protein, smad3 protein and surfactant C in the samples of each group were measured with western blotting, wherein the actin served as an internal control."}, "[2]": {"tested_on": "BMP-7 protein", "experiment": "BMP-7 protein expression in TGF-β1-induced NHLF, western blotting (2-2)", "format": "cell-based, human", "details": "TGF-β1-only control group = 1", "procedure": "Normal Human lung fibroblasts (NHLF) were seeded into 6 cm culture dishes at a density of 2×10^5 cells/dish, comprising a control group and six experimental groups (7 dishes in total). The cells were cultured until the next day, and then the mediums were removed. Each group was respectively treated under the following conditions to conduct follow-up experiments: • (1) Positive control group: cells were cultured in a FGM-2 medium containing 1% serum and TGF-β1 (5 ng/ml) for 36 hours; • (2) Group I: cells were firstly cultured in a FGM-2 medium containing 1% serum and TGF-β1 (5 ng/ml) for 12 hours, and then compound (1) was added into the medium to provide a final concentration of 15 μg/ml; thereafter, the cells were cultured for another 24 hours; • (3) Group II: cells were firstly cultured in a FGM-2 medium containing 1% serum and TGF-β1 (5 ng/ml) for 12 hours, and then compound (1) was added into the medium to provide a final concentration of 25 μg/ml; thereafter, the cells were cultured for another 24 hours; • (4) Group III: cells were firstly cultured in a FGM-2 medium containing 1% serum and TGF-β1 (5 ng/ml) for 12 hours, and then compound (1) was added into the medium to provide a final concentration of 35 μg/ml; thereafter, the cells were cultured for another 24 hours; • (5) Group IV: cells were firstly cultured in a FGM-2 medium containing 1% serum and TGF-β1 (5 ng/ml) for 12 hours, and then the Pirfenidone was added into the medium to provide a final concentration of 100 μg/ml; thereafter, the cells were cultured for another 24 hours; • (6) Group V: cells were firstly cultured in a FGM-2 medium containing 1% serum and TGF-β1 (5 ng/ml) for 12 hours, and then the Pirfenidone was added into the medium to provide a final concentration of 250 μg/ml; thereafter, the cells were cultured for another 24 hours; and • (7) Group VI: cells were firstly cultured in a FGM-2 medium containing 1% serum and TGF-β1 (5 ng/ml) for 12 hours, and then the Pirfenidone was added into the medium to provide a final concentration of 500 μg/ml; thereafter, the cells were cultured for another 24 hours.\nThereafter, the proteins in the cells of each group were extracted, and the expressions of type I collagen, BMP-7 protein and TGF-β protein in the NHLF cells of each group were measured with western blotting. The results of the control group served as the basis for calculating the relative expression levels of the other groups."}, "[3]": {"tested_on": "C57B/L6 mice injected with Bleomycin sulfate (inducer of pulmonary fibrosis)", "experiment": "Pulmonary function by unrestrained whole body plethysmography in Bleomycin sulfate mice", "format": "in vivo", "details": "compared to oil group; for accumulated volume (AV): p<0.01; for expiratory time (Te) / relaxation time (RT): p<0.05", "procedure": "24 C57B/L6 mice (age: four weeks) were separated into four groups (6 mice in each group). Each group was respectively treated under the following conditions to conduct follow-up experiments: • (1) Control group (mice without pulmonary fibrosis; i.e., normal mice): 50 μl of PBS was administrated to each mouse by intratracheal injection, and then the mice were fed for 30 days; • (2) Oil group: 0.6 U/50 μl of Bleomycin sulfate (dissolved in PBS) was administrated to each mouse by intratracheal injection, and then 100 μl of olive oil was orally administrated to each mouse every day for 30 days; • (3) Low-dose group: 0.6 U/50 μl of Bleomycin sulfate (dissolved in PBS) was administrated to each mouse by intratracheal injection, and then compound (1) (10 mg/kg-body weight, prepared with olive oil to provide a final volume of 100 μl) was orally administrated to each mouse every day for 30 days; and • (4) High-dose group: 0.6 U/50 μl of Bleomycin sulfate (dissolved in PBS) was administrated to each mouse by intratracheal injection, and then compound (1) (50 mg/kg-body weight, prepared with olive oil to provide a final volume of 100 μl) was orally administrated to each mouse every day for 30 days.\nIn this experiment, the pulmonary functions of the mice from each group of Example 5 were evaluated with Unrestrained Whole Body Plethysmography (WBP). The inspiratory and expiratory flow rates of mice were calculated by measuring changes in the air inside and outside of a specific chamber, and respiratory parameters can be obtained therefrom. The respiratory parameters comprise the peak inspiratory flow (PIF) (i.e., the maximal volume being inspired in a period of time), peak expiratory flow (PEF) (i.e., the maximal volume being expired in a period of time), inspiratory time (Ti) (i.e., the average time of inspiration in a period of time), expiratory time (Te) (i.e., the average time of expiration in a period of time), respiratory rate (RR) (i.e., the numbers of breath per minute), accumulated volume (AV) (i.e., the average volume of air being breathed per minute), tidal volume (TV) (i.e., the average volume of air being expired per time), relaxation time (RT) (i.e., the average time needed for raising the pressure of air hatch to 40% of the maximal value), etc."}, "[4]": {"details": "High-dose group, compound (1) 50 mg/kg orally daily 30 days"}, "[5]": {"details": "Low-dose group, compound (1) 10 mg/kg orally daily 30 days"}},
  "data": [
    {"molecule": "CCCC=C1OC(=O)c2ccccc21", "note": "[compound (1)]", "values": [
      {"measurement": "expression level of TGF-β protein in pulmonary tissue", "setting": "[1]; [4]", "value": "significantly lower"},
      {"measurement": "expression level of TGF-β protein in pulmonary tissue", "setting": "[1]; [5]", "value": "significantly lower"},
      {"measurement": "Relative expression level (fold) BMP-7 protein", "setting": "[2]; Group I: TGF-β1 5 ng/ml 12 h, then compound (1) 15 μg/ml 24 h", "value": 1.57, "unit": "fold"},
      {"measurement": "Relative expression level (fold) BMP-7 protein", "setting": "[2]; Group II: TGF-β1 5 ng/ml 12 h, then compound (1) 25 μg/ml 24 h", "value": 1.80, "unit": "fold"},
      {"measurement": "Relative expression level (fold) BMP-7 protein", "setting": "[2]; Group III: TGF-β1 5 ng/ml 12 h, then compound (1) 35 μg/ml 24 h", "value": 1.68, "unit": "fold"},
      {"measurement": "other respiratory parameters", "setting": "[3]; [4]", "value": "closer to the control group"},
      {"measurement": "accumulated volume (AV)", "setting": "[3]; [4]", "value": "significantly increased"},
      {"measurement": "expiratory time (Te)", "setting": "[3]; [4]", "value": "significantly decreased"},
      {"measurement": "relaxation time (RT)", "setting": "[3]; [4]", "value": "significantly decreased"},
      {"measurement": "other respiratory parameters", "setting": "[3]; [5]", "value": "closer to the control group"},
      {"measurement": "accumulated volume (AV)", "setting": "[3]; [5]", "value": "significantly increased"},
      {"measurement": "expiratory time (Te)", "setting": "[3]; [5]", "value": "significantly decreased"},
      {"measurement": "relaxation time (RT)", "setting": "[3]; [5]", "value": "significantly decreased"}
    ]}
  ]
}
